Test results taken from patent publication US8426420B2, “Heterocyclic pyrazole-carboxamidesas P2Y12 antagonists” (Sanofi, priority 2007, dated 2013).

Tests used:
human P2Y12 receptor = human P2Y12 receptor (Homo sapiens, UniProt Q9H244); assay: Human P2Y12 recombinant cell membrane binding assay with 33P 2MeS-ADP; details: competition against 33P 2MeS-ADP, membranes of CHO cells with recombinant human P2Y12 receptor
Summary of the method: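 CHO membranes expressing human P2Y12 (20 μg/ml stock) preincubated 15 min at RT with compound in HEPES pH 7.4 buffer, then 33P 2MeS-ADP (1.61 nM working solution) added for 20 min at RT. Bound label filtered and counted; four-point, five-fold series from 10 μM final, triplicate, four-parameter fit.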

[1] = test system: human platelet rich plasma; assay: Inhibition of human platelet aggregation, "Born"-method using single cuvettes; format: cell-based; details: 0.1 h, ADP-induced aggregation, 6 minutes
[2] = test system: human platelet rich plasma; assay: Inhibition of human platelet aggregation, 96-well assay; format: cell-based; details: Homo sapiens, Platelet, 20 min
Summary of the method: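 ADP-induced aggregation read as 650 nm absorbance every minute for 20 min at 37 °C, with shaking between reads. PRP (~3×E8 platelets/ml, diluted with PPP, ACD-A blood from healthy volunteers) was exposed to compound for 5 min before adding a 40 μM ADP stock (15 μl into 150 μl).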

Chain of human P2Y12 receptor (Q9H244 whole entry): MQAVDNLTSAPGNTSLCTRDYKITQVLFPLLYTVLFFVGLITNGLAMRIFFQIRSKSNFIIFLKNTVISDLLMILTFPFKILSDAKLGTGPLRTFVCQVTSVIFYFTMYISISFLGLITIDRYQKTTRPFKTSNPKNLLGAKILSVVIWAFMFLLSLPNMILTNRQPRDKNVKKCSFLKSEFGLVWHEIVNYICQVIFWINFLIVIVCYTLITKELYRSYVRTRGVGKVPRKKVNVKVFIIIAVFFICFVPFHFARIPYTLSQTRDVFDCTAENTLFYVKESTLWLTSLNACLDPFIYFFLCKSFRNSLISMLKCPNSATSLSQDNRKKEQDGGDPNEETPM

SMILES | IC50 (human P2Y12 receptor) | IC50 [1] | IC50 [2]
CCOC(=O)N1CCN(C(=O)[C@H](CCC(=O)O)NC(=O)c2cc(OCC(=O)N3CCC[C@H]3C(=O)NC3CCC3)n(-c3cccc(F)c3)n2)CC1 [Example 73, 4-((S)-4-Carboxy-2-{[5-[2-((S)-2-cyclobutylcarbamoyl-pyrrolidin-1-yl)-2-oxo-ethoxy]-1-(3-fluoro-phenyl)-1H-pyrazole-3-carbonyl]-amino}-butyryl)-piperazine-1-carboxylic acid ethyl ester] | 55 nM | 210 nM | 10 nM
O=C(O)CC[C@H](NC(=O)c1cc(OCC(=O)N2CCC[C@H]2C(=O)NC2CCC2)n(-c2ccccc2)n1)C(=O)N1CCC(C(=O)c2cccc(Cl)c2)CC1 [Example 103, (S)-5-[4-(3-Chloro-benzoyl)-piperidin-1-yl]-4-({5-[2-((S)-2-cyclobutylcarbamoyl-pyrrolidin-1-yl)-2-oxo-ethoxy]-1-phenyl-1H-pyrazole-3-carbonyl}-amino)-5-oxo-pentanoic acid] | 127 nM | 120 nM | 560 nM
CCOC(=O)N1CCN(C(=O)[C@H](CCO)NC(=O)c2cc(OCC(=O)N3CCC[C@H]3C(=O)NC3CCC3)n(-c3ccccc3)n2)CC1 [Example 115, 4-[(S)-2-({5-[2-((S)-2-Cyclobutylcarbamoyl-pyrrolidin-1-yl)-2-oxo-ethoxy]-1-phenyl-1H-pyrazole-3-carbonyl}-amino)-4-hydroxy-butyryl]-piperazine-1-carboxylic acid ethyl ester] | 59 nM | 120 nM | 210 nM
CCCCOC(=O)N1CCN(C(=O)[C@H](CCC(=O)O)NC(=O)c2cc(OCC(=O)N3CCC[C@H]3C(=O)NC3CC3)n(-c3ccccc3)n2)CC1 [Example 118, 4-[(S)-4-Carboxy-2-({5-[2-((S)-2-cyclopropylcarbamoyl-pyrrolidin-1-yl)-2-oxo-ethoxy]-1-phenyl-1H-pyrazole-3-carbonyl}-amino)-butyryl]-piperazine-1-carboxylic acid butyl ester] | 9 nM | 25 nM | 20 nM
CCCCOC(=O)N1CCN(C(=O)[C@H](CCC(=O)O)NC(=O)c2cc(OCC(=O)N3CCC[C@H]3C(=O)NCC3CC3)n(-c3ccccc3)n2)CC1 [Example 120, 4-[(S)-4-Carboxy-2-({5-[2-((S)-2-cyclopropylmethylcarbamoyl-pyrrolidin-1-yl)-2-oxo-ethoxy]-1-phenyl-1H-pyrazole-3-carbonyl}-amino)-butyryl]-piperazine-1-carboxylic acid butyl ester] | 3 nM | 21 nM | 10 nM
CCCCOC(=O)N1CCN(C(=O)[C@H](CCC(=O)O)NC(=O)c2cc(OCC(=O)N3CCC[C@H]3C(=O)NCC(F)F)n(-c3ccccc3)n2)CC1 [Example 121, 4-{(S)-4-Carboxy-2-[(5-{2-[(S)-2-(2,2-difluoro-ethylcarbamoyl)-pyrrolidin-1-yl]-2-oxo-ethoxy}-1-phenyl-1H-pyrazole-3-carbonyl)-amino]-butyryl}-piperazine-1-carboxylic acid butyl ester] | 10 nM | 5.8 nM | 30 nM
CCCCOC(=O)N1CCN(C(=O)[C@H](CCC(=O)O)NC(=O)c2cc(OCC(=O)N3CCC[C@H]3C(=O)NCCF)n(-c3ccccc3)n2)CC1 [Example 122, 4-{(S)-4-Carboxy-2-[(5-{2-[(S)-2-(2-fluoro-ethylcarbamoyl)-pyrrolidin-1-yl]-2-oxo-ethoxy}-1-phenyl-1H-pyrazole-3-carbonyl)-amino]-butyryl}-piperazine-1-carboxylic acid butyl ester] | 12 nM | 81 nM | 40 nM
CCCCOC(=O)N1CCN(C(=O)[C@H](CCC(=O)O)NC(=O)c2cc(OCC(=O)N3CCC[C@H]3C(=O)NCC(F)(F)F)n(-c3ccccc3)n2)CC1 [Example 123, 4-{(S)-4-Carboxy-2-[(5-{2-[(S)-2-(2,2,2-trifluoro-ethylcarbamoyl)-pyrrolidin-1-yl]-2-oxo-ethoxy}-1-phenyl-1H-pyrazole-3-carbonyl)-amino]-butyryl}-piperazine-1-carboxylic acid butyl ester] | 5 nM | 2.6 nM | 30 nM
CCCCOC(=O)N1CCN(C(=O)[C@H](CCC(=O)OCC)NC(=O)c2cc(OCC(=O)N3CCC[C@H]3C(=O)NC3CCC3)n(-c3ccccc3)n2)CC1 [Example 143, 4-[(S)-2-({5-[2-((S)-2-Cyclobutylcarbamoyl-pyrrolidin-1-yl)-2-oxo-ethoxy]-1-phenyl-1H-pyrazole-3-carbonyl}-amino)-4-ethoxycarbonyl-butyryl]-piperazine-1-carboxylic acid butyl ester] | 5 nM | 150 nM | 90 nM
CCCOC(=O)N1CCN(C(=O)[C@H](CCC(=O)O)NC(=O)c2cc(OCC(=O)N3CCC[C@H]3C(=O)NC3CCC3)n(-c3ccccc3)n2)CC1 [Example 162, 4-[(S)-4-Carboxy-2-({5-[2-((S)-2-cyclobutylcarbamoyl-pyrrolidin-1-yl)-2-oxo-ethoxy]-1-phenyl-1H-pyrazole-3-carbonyl}-amino)-butyryl]-piperazine-1-carboxylic acid propyl ester] | 8 nM | 33 nM | 20 nM
CCOC(=O)N1CCN(C(=O)[C@H](CCC(=O)O)NC(=O)c2cc(OCC(=O)N3CCC[C@H]3c3nc(C)c[nH]3)n(-c3ccccc3)n2)CC1 [Example 172, 4-{(S)-4-Carboxy-2-[(5-{2-[(S)-2-(4-methyl-1H-imidazol-2-yl)-pyrrolidin-1-yl]-2-oxo-ethoxy}-1-phenyl-1H-pyrazole-3-carbonyl)-amino]-butyryl}-piperazine-1-carboxylic acid ethyl ester] | 146 nM | 530 nM | 380 nM

Results, then the compound that gave them:

IC50 (human P2Y12 receptor) | IC50 [1] | IC50 [2] | SMILES
20 nM | 46 nM | 30 nM | CCCCOC(=O)N1CCN(C(=O)CNC(=O)c2cc(OCC(=O)N3CCC[C@H]3C(=O)NC3CCC3)n(-c3ccccc3)n2)CC1 [Example 182, 4-[2-({5-[2-((S)-2-Cyclobutylcarbamoyl-pyrrolidin-1-yl)-2-oxo-ethoxy]-1-phenyl-1H-pyrazole-3-carbonyl}-amino)-acetyl]-piperazine-1-carboxylic acid butyl ester]
18 nM | 80 nM | 280 nM | CCCCOC(=O)N1CCN(C(=O)[C@@H](C)NC(=O)c2cc(OCC(=O)N3CCC[C@H]3C(=O)NC3CCC3)n(-c3ccccc3)n2)CC1 [Example 184, 4-[(R)-2-({5-[2-((S)-2-Cyclobutylcarbamoyl-pyrrolidin-1-yl)-2-oxo-ethoxy]-1-phenyl-1H-pyrazole-3-carbonyl}-amino)-propionyl]-piperazine-1-carboxylic acid butyl ester]
72 nM | 30 nM | 120 nM | CCCOC(=O)N1CCN(C(=O)CNC(=O)c2cc(OCC(=O)N3CCC[C@H]3C(=O)NC3CCC3)n(-c3ccccc3)n2)CC1 [Example 210, 4-[2-({5-[2-((S)-2-Cyclobutylcarbamoyl-pyrrolidin-1-yl)-2-oxo-ethoxy]-1-phenyl-1H-pyrazole-3-carbonyl}-amino)-acetyl]-piperazine-1-carboxylic acid propyl ester]
16 nM | 130 nM | 130 nM | CCCCOC(=O)N1CCN(C(=O)[C@H](COCC)NC(=O)c2cc(OCC(=O)N3CCC[C@H]3C(=O)NC3CCC3)n(-c3ccccc3)n2)CC1 [Example 227, 4-[(S)-2-({5-[2-((S)-2-Cyclobutylcarbamoyl-pyrrolidin-1-yl)-2-oxo-ethoxy]-1-phenyl-1H-pyrazole-3-carbonyl}-amino)-3-ethoxy-propionyl]-piperazine-1-carboxylic acid butyl ester]
14 nM | 80 nM | 210 nM | CCCCOC(=O)N1CCN(C(=O)[C@@H](NC(=O)c2cc(OCC(=O)N3CCC[C@H]3C(=O)NC3CCC3)n(-c3ccccc3)n2)C2CC2)CC1 [Example 230, 4-[(S)-2-({5-[2-((S)-2-Cyclobutylcarbamoyl-pyrrolidin-1-yl)-2-oxo-ethoxy]-1-phenyl-1H-pyrazole-3-carbonyl}-amino)-2-cyclopropyl-acetyl]-piperazine-1-carboxylic acid butyl ester]
19 nM | 30 nM | 70 nM | CCCCOC(=O)N1CCN(C(=O)[C@H](CCOC)NC(=O)c2cc(OCC(=O)N3CCC[C@H]3C(=O)NC3CCC3)n(-c3ccccc3)n2)CC1 [Example 231, 4-[(S)-2-({5-[2-((S)-2-Cyclobutylcarbamoyl-pyrrolidin-1-yl)-2-oxo-ethoxy]-1-phenyl-1H-pyrazole-3-carbonyl}-amino)-4-methoxy-butyryl]-piperazine-1-carboxylic acid butyl ester]
21 nM | 60 nM | 200 nM | CCCCOC(=O)N1CCN(C(=O)[C@H](CC)NC(=O)c2cc(OCC(=O)N3CCC[C@H]3C(=O)NC3CCC3)n(-c3ccccc3)n2)CC1 [Example 233, 4-[(S)-2-({5-[2-((S)-2-Cyclobutylcarbamoyl-pyrrolidin-1-yl)-2-oxo-ethoxy]-1-phenyl-1H-pyrazole-3-carbonyl}-amino)-butyryl]-piperazine-1-carboxylic acid butyl ester]
